The supplement of paper PMC10307832

Experiments:
Assay in all cases: relative viability (nuclei count vs DMSO), 5 days (fraction); higher = more cells survive
[1] = compound: COc1cccc2c1C(=O)c1c(O)c3c(c(O)c1C2=O)C[C@@](O)(C(=O)CO)C[C@@H]3O[C@H]1C[C@H](N)[C@H](O)[C@H](C)O1 [Doxorubicin] + CCNC(=O)c1noc(-c2cc(C(C)C)c(O)cc2O)c1-c1ccc(CN2CCOCC2)cc1 [Luminespib] (partner 0.01 µM)
Summary of the method: (§1)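 Values are medians from duplicate plates. Each reflects relative viability, defined as the nuclei count of treated wells over that of vehicle wells. Lung cancer cell lines in 1536-well plates were pin-tool dosed one day after seeding with one drug alone or with a fixed anchor-drug dose plus five library-drug doses (not always all listed) in √10 steps, then fixed, stained and imaged at 4× after 5 days.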

[2] = compound: COC1=C(C=C(C=C1)C2=CC3=NC=CN3C(=N2)NC4=C(C=CC=N4)C(=O)N)OC [BAY61-3606] + N=C(N)NC(=N)NCCc1ccccc1 [Phenformin] (partner 250 µM)
Summary of the method: as §1

[3] = compound: COC1=C(C=C(C=C1)C2=CC3=NC=CN3C(=N2)NC4=C(C=CC=N4)C(=O)N)OC [BAY61-3606] + COc1cccc2cc(-c3nc([C@H]4CC[C@H](C(=O)O)CC4)n4ncnc(N)c34)[nH]c12 [OSI-027] (partner 0.5 µM)
Summary of the method: as §1

[4] = compound: COC1=C(C=C(C=C1)C2=CC3=NC=CN3C(=N2)NC4=C(C=CC=N4)C(=O)N)OC [BAY61-3606] + C[C@]1(O)C[C@@H](c2nc(-c3ccc4ccc(-c5ccccc5)nc4c3)c3c(N)nccn32)C1 [Linsitinib] (partner 1 µM)
Summary of the method: as §1

Cell Line	relative viability ([1]; first compound 0.001 µM)	relative viability ([1]; first compound 0.003162 µM)	relative viability ([1]; first compound 0.01 µM)	relative viability ([1]; first compound 0.03162 µM)	relative viability ([1]; first compound 0.1 µM)	relative viability ([2]; first compound 0.02 µM)	relative viability ([2]; first compound 0.06325 µM)	relative viability ([2]; first compound 0.2 µM)	relative viability ([2]; first compound 0.6325 µM)	relative viability ([2]; first compound 2 µM)	relative viability ([3]; first compound 0.02 µM)	relative viability ([3]; first compound 0.06325 µM)	relative viability ([3]; first compound 0.2 µM)	relative viability ([3]; first compound 0.6325 µM)	relative viability ([3]; first compound 2 µM)	relative viability ([4]; first compound 0.02 µM)	relative viability ([4]; first compound 0.06325 µM)	relative viability ([4]; first compound 0.2 µM)	relative viability ([4]; first compound 0.6325 µM)	relative viability ([4]; first compound 2 µM)
BEN	0.368	0.39	0.317	0.277	0.283	0.272	0.257	0.294	0.284	0.255	0.336	0.316	0.316	0.285	0.276	1.04	0.805	1.06	1.01	0.793
LCLC-103H	0.941	1.06	0.949	0.931	0.864	0.342	0.328	0.297	0.328	0.352	0.472	0.434	0.478	0.425	0.439	1.07	1.13	1.12	1.37	1.13
NCI-H441	–	0.312	0.358	0.321	0.293	0.818	0.934	0.782	0.972	0.652	0.587	0.713	0.428	0.557	0.313	0.646	0.628	0.626	0.535	0.38
COR-L 105	0.678	0.754	0.691	0.595	0.363	0.494	0.506	0.435	0.413	0.323	0.843	0.645	0.726	0.704	0.468	1.11	1.02	0.926	0.812	0.616
NCI-H1993	1.8	0.859	0.8	0.713	0.727	0.547	0.502	0.545	0.493	0.543	0.586	0.583	0.505	0.564	0.587	0.688	0.748	0.723	0.7	0.741
NCI-H2009	1.07	0.979	1.01	0.925	0.582	0.524	0.38	0.469	0.524	0.424	0.754	0.686	0.681	0.597	0.348	1.19	1.28	1.18	1.18	1.07
NCI-H23	–	0.221	0.235	0.18	0.23	0.85	0.796	0.764	0.78	0.714	0.629	0.72	0.442	0.561	0.512	0.613	0.689	0.609	0.881	0.423
NCI-H2405	0.572	0.701	0.778	0.599	0.6	0.429	0.259	0.383	0.38	0.41	0.676	0.63	0.64	0.756	0.65	1.05	0.835	0.94	1.12	0.639
HCC-44	0.879	0.838	0.658	0.526	0.273	0.189	0.134	0.141	0.251	0.182	0.562	–	0.474	0.583	0.548	0.636	0.695	0.722	0.762	0.751
EMC-BAC-2	1.25	1.18	1.04	0.551	0.425	0.582	0.509	0.485	0.521	0.444	0.391	0.391	0.356	0.363	0.318	0.837	0.862	0.852	0.876	0.833
NCI-H322M	0.635	0.846	0.858	0.401	0.357	0.824	0.71	0.812	0.773	0.626	0.53	0.592	0.562	0.582	0.47	1.05	0.946	0.911	0.925	0.878
SK-MES-1	0.771	0.618	0.487	0.199	0.151	0.729	0.586	0.633	0.685	0.57	0.604	0.674	0.56	0.706	0.405	1	1.13	1.09	1.09	0.989
EPLC-272H	0.209	0.262	0.339	0.259	0.253	0.254	0.294	0.312	0.303	0.228	0.269	0.268	0.267	0.329	0.333	1.18	1.06	1.07	1.19	1.26
NCI-H1975	0.139	0.183	0.249	0.167	0.178	0.41	0.413	0.412	0.394	0.301	0.797	0.756	0.692	0.635	0.333	1.1	0.813	0.891	0.837	0.615
NCI-H727	0.286	0.348	0.225	0.336	0.308	0.68	0.554	0.542	0.553	0.541	0.604	0.559	0.71	0.688	0.513	0.258	0.184	0.386	0.188	0.354
NCI-H520	0.249	0.242	0.266	0.18	0.217	0.552	0.446	0.659	0.67	0.51	0.247	0.364	0.364	0.296	0.212	1.14	1.04	1.08	1.16	0.94

Cell Line	relative viability ([1]; first compound 0.001 µM)	relative viability ([1]; first compound 0.003162 µM)	relative viability ([1]; first compound 0.01 µM)	relative viability ([1]; first compound 0.03162 µM)	relative viability ([1]; first compound 0.1 µM)	relative viability ([2]; first compound 0.02 µM)	relative viability ([2]; first compound 0.06325 µM)	relative viability ([2]; first compound 0.2 µM)	relative viability ([2]; first compound 0.6325 µM)	relative viability ([2]; first compound 2 µM)	relative viability ([3]; first compound 0.02 µM)	relative viability ([3]; first compound 0.06325 µM)	relative viability ([3]; first compound 0.2 µM)	relative viability ([3]; first compound 0.6325 µM)	relative viability ([3]; first compound 2 µM)	relative viability ([4]; first compound 0.02 µM)	relative viability ([4]; first compound 0.06325 µM)	relative viability ([4]; first compound 0.2 µM)	relative viability ([4]; first compound 0.6325 µM)	relative viability ([4]; first compound 2 µM)
NCI-H1355	0.697	0.829	0.686	0.605	0.732	0.484	0.368	0.406	0.448	0.41	0.409	0.329	0.374	0.377	0.286	0.798	0.8	0.799	0.891	0.678
NCI-H2347	0.385	0.547	0.527	0.415	0.439	0.563	0.359	0.544	0.455	0.538	0.492	0.365	0.457	0.487	0.281	1.03	0.97	0.978	1.03	0.898
LC-2-ad	0.889	0.696	0.642	0.421	0.295	0.613	0.539	0.592	0.6	0.563	0.853	0.772	0.8	0.997	0.654	0.971	0.922	0.897	0.827	0.562
NCI-H838	0.273	0.35	0.279	0.255	0.172	0.628	0.489	0.621	0.388	0.277	0.456	0.36	0.429	0.411	0.298	1.12	1	1.06	1.13	0.891
NCI-H1793	–	0.228	0.289	0.159	0.263	0.363	0.216	–	0.41	0.271	0.259	0.276	–	0.255	0.235	0.797	0.892	1	1.27	0.89
NCI-H358	0.213	0.471	0.291	0.392	0.189	0.371	0.32	0.351	0.244	0.158	0.918	0.722	0.781	0.677	0.199	0.769	0.64	0.699	0.673	0.299
NCI-H2087	–	0.19	0.14	0.133	0.144	0.432	0.463	0.44	0.411	0.384	0.47	0.577	0.557	0.555	0.417	0.883	1.13	0.905	1.16	0.732
NCI-H596	0.933	1.21	0.838	0.821	1.02	0.803	0.806	0.793	0.793	0.737	0.699	0.535	0.647	0.711	0.462	1.16	0.962	1	1.02	0.954
RERF-LC-KJ	1.32	1.21	0.838	0.323	0.308	0.417	0.404	0.424	0.467	0.343	0.605	0.533	0.573	0.621	0.379	0.844	0.918	0.852	0.886	0.807
NCI-H647	0.117	0.13	0.11	0.185	0.149	0.562	0.294	0.496	0.393	0.29	0.648	0.567	0.691	0.423	0.277	1.34	1.46	1.46	1.05	0.661
LU99A	0.226	0.228	0.268	0.235	0.258	0.938	0.759	0.735	0.755	0.708	0.315	0.271	0.298	0.26	0.306	0.544	0.548	0.575	0.501	0.318
NCI-H460	0.0376	0.0412	0.0317	0.0182	0.0137	0.549	0.48	0.494	0.493	0.106	0.781	0.672	0.657	0.467	0.214	1.03	0.77	0.752	0.822	0.189
NCI-H650	0.694	0.75	0.78	0.565	0.627	0.435	0.42	0.375	0.428	0.405	0.509	0.532	0.439	0.495	0.513	1.12	0.934	0.781	1.02	0.596
PC-14	0.173	0.181	0.122	0.14	0.116	0.752	0.357	0.579	0.532	0.536	0.786	0.787	0.746	1.24	0.522	1.05	1.04	0.916	0.968	0.826
PC-3 [JPC-3]	0.661	0.748	0.683	0.714	0.615	–	0.491	0.476	0.454	0.463	–	0.756	0.711	0.787	0.704	0.895	0.906	0.947	1.01	0.93
NCI-H1944	0.725	0.733	0.751	0.674	0.651	0.211	0.196	0.193	0.201	0.182	0.403	0.377	0.363	0.373	0.352	1.31	1.17	1.1	1.13	1.27
